Results published in US20140011757A1, “NOVEL MACROLIDE DERIVATIVE” (MEIJI SEIKA PHARMA CO., LTD., priority 2011, published 2014).
Converted amounts (≈) assume the structure as drawn. “And” between values parts separate entries of the source, which are not always exact repeats. Equal values may be shown once. Read-outs that look alike come from different tables or passages of the source.

Experiments:
M. haemolytica = experiment: In vitro antibacterial activity, broth microdilution MIC (CLSI M31-A2); type: cell-based, Mannheimia haemolytica
Procedure: (§1) Hereinafter, a description is made of an evaluation method for the compound. The compound was measured for its in vitro antibacterial activity by a broth microdilution method in accordance with a CLSI method (formerly NCCLS method, […]-A2) (Performance Standards for Antimicrobial Disk and Dilution Susceptibility Tests for Bacteria Isolated from Animals; Approved Standard-Second Edition NCCLS […]-A2 Vol. 22 No. 6 2002). A medium used was BBL Mueller Hinton II broth supplemented with lysed horse blood and NAD. A test drug solution at each concentration level obtained by dissolving a test drug in ethanol and then diluting the resultant with the liquid medium described above was dispensed into a 96-well microplate, and a test bacterial strain was inoculated. After having been cultured in the presence of 5% CO2 at 37° C. for 20 to 24 hours, the test bacterial strain was visually observed for the presence or absence of its growth. A minimum drug concentration completely inhibiting the growth of the test bacterial strain was defined as a minimum inhibitory concentration (hereinafter, referred to as MIC). The compound obtained in the present invention was measured for its in vitro antibacterial activity by a broth microdilution method in accordance with a CLSI method (formerly NCCLS method, […]-A2) (Performance Standards for Antimicrobial Disk and Dilution Susceptibility Tests for Bacteria Isolated from Animals; Approved Standard-Second Edition NCCLS […]-A2 Vol. 22 No. 6 2002). A medium composition used in the measurement is shown below. […] The resultant test drug solution was further subjected to two-step dilution with the liquid medium described above to prepare a test drug solution at each concentration level. The thus prepared test drug solution at each concentration level was dispensed into a 96-well microplate at 100 μL/well, and a test bacterial strain was inoculated at about 5×10^4 CFU/well. After having been cultured in the presence of 5% CO2 at 37° C. for 20 to 24 hours, the test bacterial strain was visually observed for the presence or absence of its growth. A minimum drug concentration completely inhibiting the growth of the test bacterial strain was defined as a minimum inhibitory concentration (hereinafter, referred to as MIC). […] Saponin was dissolved with purified water. The solution was sterilized and then added to defibrinated horse blood.

P. multocida = experiment: as above; type: cell-based, Pasteurella multocida
Procedure: as §1

[1] = system: main pathogens of bacterial respiratory tract infections in livestock animals such as cattle and swine; type: cell-based
A. pleuropneumoniae = experiment: In vitro antibacterial activity, broth microdilution MIC (CLSI M31-A2); type: cell-based, Actinobacillus pleuropneumoniae
Procedure: as §1

H. somni = experiment: as above; type: cell-based, Histophilus somni
Procedure: as §1

H. parasuis = experiment: as above; type: cell-based, Haemophilus parasuis
Procedure: as §1

[2] = Mannheimia haemolytica, M. haemolytica strain 11443, read-out: MIC
[3] = Mannheimia haemolytica, M. haemolytica strain 11467-2, read-out: MIC
[4] = Pasteurella multocida, ATCC43019, P. multocida (bovine) strain ATCC43019, read-out: MIC
[5] = Pasteurella multocida, ATCC43137, P. multocida (swine) strain ATCC43137, read-out: MIC
[6] = Pasteurella multocida, P. multocida (bovine) strain 11272, read-out: MIC
[7] = Pasteurella multocida, P. multocida (bovine) strain 11325-1, read-out: MIC
[8] = Pasteurella multocida, P. multocida (bovine) strain 11787-24, read-out: MIC
[9] = Pasteurella multocida, P. multocida (swine) strain 11587-3, read-out: MIC
[10] = Pasteurella multocida, P. multocida (swine) strain 11745-15, read-out: MIC
[11] = Actinobacillus pleuropneumoniae, A. pleuropneumoniae strain 10895-2, read-out: MIC
[12] = Actinobacillus pleuropneumoniae, A. pleuropneumoniae strain 11684-7, read-out: MIC
[13] = Actinobacillus pleuropneumoniae, A. pleuropneumoniae strain 11796-1, read-out: MIC
[14] = Actinobacillus pleuropneumoniae, A. pleuropneumoniae strain 11804-2, read-out: MIC
[15] = Actinobacillus pleuropneumoniae, ATCC27089, A. pleuropneumoniae strain ATCC27089, read-out: MIC
[16] = Histophilus somni, H. somni strain 11321, read-out: MIC
[17] = Histophilus somni, H. somni strain 11423-3, read-out: MIC
[18] = Glaesserella parasuis, H. parasuis strain 11510-1, read-out: MIC
[19] = Glaesserella parasuis, H. parasuis strain 11640-1, read-out: MIC

Compound | MIC (M. haemolytica; [2]) [µg/mL] | MIC (M. haemolytica; [3]) [µg/mL] | MIC (P. multocida; [4]) [µg/mL] | MIC (P. multocida; [5]) [µg/mL] | MIC (P. multocida; [6]) [µg/mL] | MIC (P. multocida; [7]) [µg/mL] | MIC (P. multocida; [8]) [µg/mL] | MIC (P. multocida; [9]) [µg/mL] | MIC (P. multocida; [10]) [µg/mL] | MIC (A. pleuropneumoniae; [11]) [µg/mL] | MIC (A. pleuropneumoniae; [12]) [µg/mL] | MIC (A. pleuropneumoniae; [13]) [µg/mL] | MIC (A. pleuropneumoniae; [14]) [µg/mL] | MIC (A. pleuropneumoniae; [15]) [µg/mL] | MIC (H. somni; [16]) [µg/mL] | MIC (H. somni; [17]) [µg/mL] | MIC (H. parasuis; [18]) [µg/mL] | MIC (H. parasuis; [19]) [µg/mL] | also measured
CO[C@@H]1C(OC2O[C@@H](C)C(O)C(N(C)C)C2O)[C@@H](CC=O)C[C@@H](C)[C@@H](OC(C)=O)/C=C/[C@@H](N(C)CCCc2ccnc3ccccc23)[C@@H](O)C[C@@H](C)OC(=O)C[C@H]1OC(C)=O (stereo partly shown) [Compound of formula (I)] | 4 | 4 | 4 | 4 | 4 | 2 | 4 | 4 | 4 | 4 | 32 | 4 | 8 | 4 | 0.5 | 1 | 0.5 | 4 | MIC corresponding to an activity enhanced as compared to josamycin [1]: approximately 8 fold; MIC corresponding to an activity enhanced as compared to tulathromycin [1]: ≥ 4 fold; antibacterial activities as compared to the existing drugs [1]: remarkably strong antibacterial activities
CO[C@@H]1[C@@H](O[C@@H]2O[C@H](C)[C@@H](O[C@H]3C[C@@](C)(O)[C@@H](OC(=O)CC(C)C)[C@H](C)O3)[C@H](N(C)C)[C@H]2O)[C@@H](CC=O)C[C@@H](C)[C@@H](O)/C=C/C=C/C[C@@H](C)OC(=O)C[C@H]1OC(C)=O [JM, josamycin] | 16 (≈ 19.3 µM) | 32 (≈ 38.6 µM) | 64 (≈ 77.3 µM) | 32 (≈ 38.6 µM) | 16 (≈ 19.3 µM) | 8 (≈ 9.66 µM) | 32 (≈ 38.6 µM) | 32 (≈ 38.6 µM) | 32 (≈ 38.6 µM) | 32 (≈ 38.6 µM) | 64 (≈ 77.3 µM) | 16 (≈ 19.3 µM) | 8 (≈ 9.66 µM) | 16 (≈ 19.3 µM) | 2 (≈ 2.42 µM) | 8 (≈ 9.66 µM) | 8 (≈ 9.66 µM) | 32 (≈ 38.6 µM) | –
CCCNC[C@]1(O)[C@H](C)O[C@@H](O[C@H]2[C@H](C)[C@@H](O[C@@H]3O[C@H](C)C[C@H](N(C)C)[C@H]3O)[C@](C)(O)C[C@@H](C)CN[C@H](C)[C@@H](O)[C@](C)(O)[C@@H](CC)OC(=O)[C@@H]2C)C[C@@]1(C)OC [TLM, tulathromycin] | – | – | – | – | – | – | – | – | – | – | – | – | – | – | – | – | – | – | MIC (M. haemolytica; M. haemolytica strain 11443): 16 µg/mL (≈ 19.8 µM); MIC (M. haemolytica; M. haemolytica strain 11467-2): 32 µg/mL (≈ 39.7 µM); MIC (P. multocida; P. multocida (bovine) strain 11272): 16 µg/mL (≈ 19.8 µM); MIC (P. multocida; P. multocida (bovine) strain 11325-1): 4 µg/mL (≈ 4.96 µM); MIC (P. multocida; P. multocida (bovine) strain 11787-24): 8 µg/mL (≈ 9.92 µM); MIC (P. multocida; P. multocida (bovine) strain ATCC43019): 16 µg/mL (≈ 19.8 µM); MIC (P. multocida; P. multocida (swine) strain 11587-3): 16 µg/mL (≈ 19.8 µM); MIC (P. multocida; P. multocida (swine) strain 11745-15): 8 µg/mL (≈ 9.92 µM); MIC (P. multocida; P. multocida (swine) strain ATCC43137): 16 µg/mL (≈ 19.8 µM); MIC (A. pleuropneumoniae; A. pleuropneumoniae strain 10895-2): 16 µg/mL (≈ 19.8 µM); MIC (A. pleuropneumoniae; A. pleuropneumoniae strain 11684-7): 64 µg/mL (≈ 79.4 µM); MIC (A. pleuropneumoniae; A. pleuropneumoniae strain 11796-1): 16 µg/mL (≈ 19.8 µM); MIC (A. pleuropneumoniae; A. pleuropneumoniae strain 11804-2): 16 µg/mL (≈ 19.8 µM); MIC (A. pleuropneumoniae; A. pleuropneumoniae strain ATCC27089): 32 µg/mL (≈ 39.7 µM); MIC (H. somni; H. somni strain 11321): 1 µg/mL (≈ 1.24 µM); MIC (H. somni; H. somni strain 11423-3): 1 µg/mL (≈ 1.24 µM); MIC (H. parasuis; H. parasuis strain 11510-1): 4 µg/mL (≈ 4.96 µM); MIC (H. parasuis; H. parasuis strain 11640-1): 8 µg/mL (≈ 9.92 µM)
CC[C@H]1OC(=O)C[C@@H](O)[C@H](C)[C@@H](O[C@@H]2O[C@H](C)[C@@H](O)[C@H](N(C)C)[C@H]2O)[C@@H](CCN2C[C@H](C)C[C@H](C)C2)C[C@@H](C)C(=O)/C=C/C(C)=C/[C@@H]1CO[C@@H]1O[C@H](C)[C@@H](O)[C@@H](OC)[C@H]1OC [TMS, tilmicosin] | 16 (≈ 18.4 µM) | 8 (≈ 9.2 µM) | 32 (≈ 36.8 µM) | 16 (≈ 18.4 µM) | 32 (≈ 36.8 µM) | 16 (≈ 18.4 µM) | 16 (≈ 18.4 µM) | 16 (≈ 18.4 µM) | 16 (≈ 18.4 µM) | 16 (≈ 18.4 µM) | 128 (≈ 147 µM) | 16 (≈ 18.4 µM) | 16 (≈ 18.4 µM) | 16 (≈ 18.4 µM) | 1 (≈ 1.15 µM) | 4 (≈ 4.6 µM) | 1 (≈ 1.15 µM) | 16 (≈ 18.4 µM) | –
CC[C@H]1OC(=O)C[C@@H](O)[C@H](C)[C@@H](O[C@@H]2O[C@H](C)[C@@H](O[C@H]3C[C@@](C)(O)[C@@H](O)[C@H](C)O3)[C@H](N(C)C)[C@H]2O)[C@@H](CC=O)C[C@@H](C)C(=O)/C=C/C(C)=C/[C@@H]1CO[C@@H]1O[C@H](C)[C@@H](O)[C@@H](OC)[C@H]1OC [TS, tylosin] | 16 (≈ 17.5 µM) | 128 (≈ 140 µM) | 64 (≈ 69.9 µM) | 64 (≈ 69.9 µM) | 64 (≈ 69.9 µM) | 16 (≈ 17.5 µM) | 32 (≈ 34.9 µM) | 64 (≈ 69.9 µM) | 64 (≈ 69.9 µM) | 16 (≈ 17.5 µM) | 256 (≈ 279 µM) | 32 (≈ 34.9 µM) | 32 (≈ 34.9 µM) | 32 (≈ 34.9 µM) | 1 (≈ 1.09 µM) | 4 (≈ 4.37 µM) | 4 (≈ 4.37 µM) | 8 (≈ 8.73 µM) | –
aivlosin | – | – | – | – | – | – | – | – | – | – | – | – | – | – | – | – | – | – | MIC (M. haemolytica): 32 µg/mL and 64 µg/mL; MIC (P. multocida): 256 µg/mL and 128 µg/mL; MIC (A. pleuropneumoniae): 32 µg/mL and 64 µg/mL; MIC (H. parasuis): 16 µg/mL and 32 µg/mL
